Test system: coculture of keratinocytes and of melanocytes
Experiment: depigmenting activity test: inhibition of melanogenesis on a coculture of keratinocytes and of melanocytes
Assay type: cell-based
Conditions: for Category (maximum depigmenting activity): inhibition of melanogenesis with respect to the control; for IC50: coculture of keratinocytes and melanocytes, read-out: IC50 (concentration at which 50% inhibition of melanogenesis is observed)
Procedure: This test corresponds to that described in Patent FR 2,734,825, filed by the Applicant Company, and in the article by R. Schmidt, P. Krien and M. Régnier, Anal. Biochem., 235(2), 113-18 (1996). This test is thus carried out on a coculture of keratinocytes and of melanocytes.
The IC50 value, which corresponds to the micromolar concentration (μM) at which 50% inhibition of melanogenesis is observed, is determined for each compound tested.
Furthermore, a category is given to each of these compounds for their maximum depigmenting activity:
category 1: 10 to 30% inhibition of melanogenesis with respect to the control (same experiment without compound to be tested);
category 2: 30 to 60% inhibition of melanogenesis with respect to the control (same experiment without compound to be tested);
category 3: 60 to 100% inhibition of melanogenesis with respect to the control (same experiment without compound to be tested).

IC50 [µM] | SMILES | Category (maximum depigmenting activity) (at 500 μM) | Category (maximum depigmenting activity) (at 50 μM)
500 | O=c1cc(CO)occ1O [Kojic acid] | 2 at 500 μM (category 2: 30 to 60% inhibition of melanogenesis with respect to the control) | –
200 | CN(C)C=Nc1ccc(O)cc1 [N′-(4-hydroxyphenyl)-N,N-dimethylformamidine] | – | 2 at 50 μM (category 2: 30 to 60% inhibition of melanogenesis with respect to the control)

Source: patent publication US6514486B1, “Composition for topical application comprising at least one iminophenol compound” (L'Oreal, priority 1997, dated 2003)
